Values of other authors, collected in patent US7638678B2, “Animal model for perimenopause and menopause and methods of inducing ovarian failure” (The Arizona Board of Regents, priority 2002, dated 2009).

How the values were obtained:
ovarian follicles = details: B6C3F1 mice dosed with VCH; cited from earlier work
[1] = i.p. minipumps versus injection; cited from earlier work

Molecule	Premature ovarian failure in long term studies (ovarian follicles)	Decrease of the effective dose by continuous administration [1]
C=CC1CC=CCC1 (centres unmarked) [VCH, 4-vinylcyclohexene]	premature ovarian failure occurred within a year	–
endostatin	–	8-10 fold
